Experimental data taken from ChEMBL document CHEMBL2429821, “A Casein kinase 1/Checkpoint kinase 1 pyrazolo-pyridine protein kinase inhibitor as novel activator of the p53 pathway” (Bioorg Med Chem Lett, 2013).

Legend:
[1] = target: Tyrosine-protein kinase SYK (Homo sapiens) (UniProt P43405); test: Inhibition of human SYK assessed as residual activity at 1 uM relative to control
[2] = target: Rho-associated protein kinase 2 (Rattus norvegicus) (UniProt Q62868); test: Inhibition of rat ROCK2 assessed as residual activity at 1 uM relative to control
[3] = target: T1, MAP kinase-activated protein kinase 5 (Homo sapiens) (UniProt Q8IW41); test: Inhibition of human PRAK assessed as residual activity at 1 uM relative to control
T1 sequence (whole entry): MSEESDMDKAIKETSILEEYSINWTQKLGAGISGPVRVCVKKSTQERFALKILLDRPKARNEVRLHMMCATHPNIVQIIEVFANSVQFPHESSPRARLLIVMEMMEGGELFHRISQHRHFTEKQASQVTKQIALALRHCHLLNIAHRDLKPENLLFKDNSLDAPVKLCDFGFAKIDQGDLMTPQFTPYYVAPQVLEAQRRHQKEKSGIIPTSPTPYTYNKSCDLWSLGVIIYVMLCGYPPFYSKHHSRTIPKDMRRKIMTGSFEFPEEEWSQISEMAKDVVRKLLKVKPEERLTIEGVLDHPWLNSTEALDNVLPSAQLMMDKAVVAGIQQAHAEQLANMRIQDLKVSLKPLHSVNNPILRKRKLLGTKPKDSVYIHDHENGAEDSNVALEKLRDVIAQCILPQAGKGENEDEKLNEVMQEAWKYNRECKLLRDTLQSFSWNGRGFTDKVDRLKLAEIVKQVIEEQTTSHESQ

[4] = target: Protein kinase C alpha type (Homo sapiens) (UniProt P17252); test: Inhibition of human PKCalpha assessed as residual activity at 1 uM relative to control
[5] = species: Bos taurus; test: Inhibition of cow PKA assessed as residual activity at 1 uM relative to control
[6] = target: RAC-alpha serine/threonine-protein kinase (Homo sapiens) (UniProt P31749); test: Inhibition of human PKBalpha assessed as residual activity at 1 uM relative to control
[7] = target: Ephrin type-A receptor 2 (Homo sapiens) (UniProt P29317); test: Inhibition of human EPHA2 assessed as residual activity at 1 uM relative to control
[8] = target: Casein kinase II (Homo sapiens) (UniProt P67870+P68400+P19784); test: Inhibition of human CK2 assessed as residual activity at 1 uM relative to control; format: protein-complex assay
[9] = target: T1, MAP kinase-activated protein kinase 5 (Homo sapiens); test: Inhibition of human PRAK assessed as residual activity at 10 uM relative to control
[10] = target: Rho-associated protein kinase 2 (Rattus norvegicus) (UniProt Q62868); test: Inhibition of rat ROCK2 assessed as residual activity at 10 uM relative to control
[11] = target: Serine/threonine-protein kinase Nek6 (Homo sapiens) (UniProt Q9HC98); test: Inhibition of human NEK6 assessed as residual activity at 10 uM relative to control
[12] = target: Mitogen-activated protein kinase 8 (Homo sapiens) (UniProt P45983); test: Inhibition of human JNK1 assessed as residual activity at 10 uM relative to control
[13] = target: Ephrin type-A receptor 2 (Homo sapiens) (UniProt P29317); test: Inhibition of human EPHA2 assessed as residual activity at 10 uM relative to control
[14] = target: Myosin light chain kinase, smooth muscle (Homo sapiens) (UniProt Q15746); test: Inhibition of human smMLCK assessed as residual activity at 1 uM relative to control
[15] = target: Serine/threonine-protein kinase pim-1 (Homo sapiens) (UniProt P11309); test: Inhibition of human PIM1 assessed as residual activity at 1 uM relative to control
[16] = target: T2, Inhibitor of nuclear factor kappa-B kinase subunit beta (Homo sapiens) (UniProt O14920); test: Inhibition of human IKKbeta assessed as residual activity at 1 uM relative to control
T2 sequence (whole entry): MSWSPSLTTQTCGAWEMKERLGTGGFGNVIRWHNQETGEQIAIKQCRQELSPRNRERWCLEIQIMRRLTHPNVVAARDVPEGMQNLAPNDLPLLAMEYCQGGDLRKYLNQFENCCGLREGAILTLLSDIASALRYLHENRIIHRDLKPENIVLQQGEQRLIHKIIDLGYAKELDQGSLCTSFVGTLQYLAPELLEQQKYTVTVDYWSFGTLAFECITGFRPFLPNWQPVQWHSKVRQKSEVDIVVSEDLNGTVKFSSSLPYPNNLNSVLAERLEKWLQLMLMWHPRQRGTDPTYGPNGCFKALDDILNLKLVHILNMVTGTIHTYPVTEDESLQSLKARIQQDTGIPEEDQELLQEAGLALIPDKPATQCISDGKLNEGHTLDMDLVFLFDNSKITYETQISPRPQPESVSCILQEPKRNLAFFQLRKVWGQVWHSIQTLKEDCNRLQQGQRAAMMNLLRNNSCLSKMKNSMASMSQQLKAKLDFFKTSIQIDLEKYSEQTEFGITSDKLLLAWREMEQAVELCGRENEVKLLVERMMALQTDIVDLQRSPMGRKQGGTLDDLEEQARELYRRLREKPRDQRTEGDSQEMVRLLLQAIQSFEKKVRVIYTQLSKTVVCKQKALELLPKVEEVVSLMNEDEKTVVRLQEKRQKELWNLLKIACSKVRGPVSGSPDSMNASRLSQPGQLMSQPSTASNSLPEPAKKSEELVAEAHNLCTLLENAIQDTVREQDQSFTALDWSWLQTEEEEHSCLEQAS

[17] = target: Tyrosine-protein kinase BTK (Homo sapiens) (UniProt Q06187); test: Inhibition of human BTK assessed as residual activity at 1 uM relative to control
[18] = target: T3, Serine/threonine-protein kinase Sgk1 (Homo sapiens) (UniProt O00141); test: Inhibition of human SGK1 assessed as residual activity at 10 uM relative to control
T3 sequence (whole entry): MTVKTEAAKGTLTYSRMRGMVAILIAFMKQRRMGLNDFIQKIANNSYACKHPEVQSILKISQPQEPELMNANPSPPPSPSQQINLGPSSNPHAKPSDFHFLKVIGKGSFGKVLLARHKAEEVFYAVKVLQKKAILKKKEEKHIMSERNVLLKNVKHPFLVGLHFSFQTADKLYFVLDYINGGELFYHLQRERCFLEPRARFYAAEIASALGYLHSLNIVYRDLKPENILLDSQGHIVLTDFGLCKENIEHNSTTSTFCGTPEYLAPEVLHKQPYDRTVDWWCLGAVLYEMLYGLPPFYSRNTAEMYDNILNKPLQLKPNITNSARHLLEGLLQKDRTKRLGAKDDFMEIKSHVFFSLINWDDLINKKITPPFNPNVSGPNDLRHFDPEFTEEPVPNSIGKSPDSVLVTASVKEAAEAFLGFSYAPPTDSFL

[19] = target: Homeodomain-interacting protein kinase 2 (Homo sapiens) (UniProt Q9H2X6); test: Inhibition of human HIPK2 assessed as residual activity at 10 uM relative to control
Chain of Homeodomain-interacting protein kinase 2 (Homo sapiens) (Q9H2X6 whole entry, looked up): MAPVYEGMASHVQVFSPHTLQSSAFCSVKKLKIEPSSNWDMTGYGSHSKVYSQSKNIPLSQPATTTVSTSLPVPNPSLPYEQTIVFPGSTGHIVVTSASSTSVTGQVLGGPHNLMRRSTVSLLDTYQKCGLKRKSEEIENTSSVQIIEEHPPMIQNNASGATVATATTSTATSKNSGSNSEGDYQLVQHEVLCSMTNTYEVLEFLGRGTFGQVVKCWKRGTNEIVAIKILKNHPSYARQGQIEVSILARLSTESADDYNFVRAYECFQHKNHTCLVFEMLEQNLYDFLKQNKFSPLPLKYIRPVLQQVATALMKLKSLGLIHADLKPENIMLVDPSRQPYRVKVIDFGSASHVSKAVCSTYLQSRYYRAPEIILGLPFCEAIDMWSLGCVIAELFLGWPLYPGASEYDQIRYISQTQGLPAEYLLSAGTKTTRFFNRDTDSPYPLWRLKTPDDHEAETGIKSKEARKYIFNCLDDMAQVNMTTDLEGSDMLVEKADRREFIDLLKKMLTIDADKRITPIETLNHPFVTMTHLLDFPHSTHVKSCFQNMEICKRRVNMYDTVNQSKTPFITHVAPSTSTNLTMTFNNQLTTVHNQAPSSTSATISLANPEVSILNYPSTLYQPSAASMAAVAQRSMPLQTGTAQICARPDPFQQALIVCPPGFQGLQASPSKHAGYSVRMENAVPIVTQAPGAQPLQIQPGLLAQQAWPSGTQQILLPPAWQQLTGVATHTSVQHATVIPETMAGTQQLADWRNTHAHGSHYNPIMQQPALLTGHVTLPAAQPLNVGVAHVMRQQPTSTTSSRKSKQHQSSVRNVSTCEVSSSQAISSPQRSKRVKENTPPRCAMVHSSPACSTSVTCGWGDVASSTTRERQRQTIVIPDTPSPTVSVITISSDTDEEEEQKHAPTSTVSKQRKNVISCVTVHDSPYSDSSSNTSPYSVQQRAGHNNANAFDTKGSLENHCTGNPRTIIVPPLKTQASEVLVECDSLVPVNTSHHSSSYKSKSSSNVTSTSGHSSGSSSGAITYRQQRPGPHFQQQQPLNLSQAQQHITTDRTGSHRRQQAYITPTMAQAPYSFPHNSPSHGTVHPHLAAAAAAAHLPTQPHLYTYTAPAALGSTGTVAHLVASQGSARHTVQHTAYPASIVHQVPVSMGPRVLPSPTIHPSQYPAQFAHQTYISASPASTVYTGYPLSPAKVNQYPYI

Chain of Tyrosine-protein kinase BTK (Homo sapiens) (Q06187 whole entry): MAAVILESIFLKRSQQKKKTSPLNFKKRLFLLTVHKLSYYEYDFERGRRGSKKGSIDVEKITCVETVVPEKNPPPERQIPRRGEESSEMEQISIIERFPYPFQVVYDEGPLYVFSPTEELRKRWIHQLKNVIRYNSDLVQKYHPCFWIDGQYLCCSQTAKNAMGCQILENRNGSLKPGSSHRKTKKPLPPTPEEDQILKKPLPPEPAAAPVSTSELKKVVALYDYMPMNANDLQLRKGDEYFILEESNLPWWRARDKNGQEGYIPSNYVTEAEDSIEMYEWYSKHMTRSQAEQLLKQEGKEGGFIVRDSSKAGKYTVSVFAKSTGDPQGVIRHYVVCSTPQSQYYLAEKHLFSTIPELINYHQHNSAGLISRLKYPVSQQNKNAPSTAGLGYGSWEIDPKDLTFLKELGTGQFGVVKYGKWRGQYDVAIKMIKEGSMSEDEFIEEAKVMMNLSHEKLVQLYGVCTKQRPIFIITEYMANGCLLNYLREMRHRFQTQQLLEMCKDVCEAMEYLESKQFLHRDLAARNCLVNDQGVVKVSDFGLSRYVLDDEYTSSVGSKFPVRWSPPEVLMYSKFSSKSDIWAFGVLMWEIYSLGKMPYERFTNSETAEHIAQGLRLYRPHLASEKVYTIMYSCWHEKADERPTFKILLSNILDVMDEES
Chain of Ephrin type-A receptor 2 (Homo sapiens) (P29317 whole entry): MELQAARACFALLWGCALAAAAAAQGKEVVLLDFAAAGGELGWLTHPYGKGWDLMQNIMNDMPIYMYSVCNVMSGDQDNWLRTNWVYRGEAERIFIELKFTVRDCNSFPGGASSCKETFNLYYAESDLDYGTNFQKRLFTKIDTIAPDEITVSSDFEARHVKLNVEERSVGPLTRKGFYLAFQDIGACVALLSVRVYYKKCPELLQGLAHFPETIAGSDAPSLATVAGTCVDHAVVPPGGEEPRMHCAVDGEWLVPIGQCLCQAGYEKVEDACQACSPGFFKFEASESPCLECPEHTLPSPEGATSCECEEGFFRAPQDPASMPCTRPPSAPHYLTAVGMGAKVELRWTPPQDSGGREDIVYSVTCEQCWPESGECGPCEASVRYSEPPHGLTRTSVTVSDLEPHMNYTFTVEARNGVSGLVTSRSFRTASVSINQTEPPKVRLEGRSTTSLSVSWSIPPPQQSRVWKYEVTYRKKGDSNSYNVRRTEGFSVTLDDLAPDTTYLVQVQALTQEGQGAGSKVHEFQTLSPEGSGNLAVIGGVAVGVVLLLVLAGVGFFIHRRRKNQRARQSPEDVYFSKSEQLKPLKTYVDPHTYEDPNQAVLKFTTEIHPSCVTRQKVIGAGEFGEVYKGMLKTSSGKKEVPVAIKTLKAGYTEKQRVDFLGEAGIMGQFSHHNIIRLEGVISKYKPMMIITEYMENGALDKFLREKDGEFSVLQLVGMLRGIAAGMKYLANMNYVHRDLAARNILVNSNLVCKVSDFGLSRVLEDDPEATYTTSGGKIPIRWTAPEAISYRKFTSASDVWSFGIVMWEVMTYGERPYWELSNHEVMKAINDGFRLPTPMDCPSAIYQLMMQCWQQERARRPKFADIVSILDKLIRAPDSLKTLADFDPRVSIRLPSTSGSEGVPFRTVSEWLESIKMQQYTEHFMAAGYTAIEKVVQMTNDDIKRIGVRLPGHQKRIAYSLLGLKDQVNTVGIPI
Chain of Serine/threonine-protein kinase Nek6 (Homo sapiens) (Q9HC98 whole entry): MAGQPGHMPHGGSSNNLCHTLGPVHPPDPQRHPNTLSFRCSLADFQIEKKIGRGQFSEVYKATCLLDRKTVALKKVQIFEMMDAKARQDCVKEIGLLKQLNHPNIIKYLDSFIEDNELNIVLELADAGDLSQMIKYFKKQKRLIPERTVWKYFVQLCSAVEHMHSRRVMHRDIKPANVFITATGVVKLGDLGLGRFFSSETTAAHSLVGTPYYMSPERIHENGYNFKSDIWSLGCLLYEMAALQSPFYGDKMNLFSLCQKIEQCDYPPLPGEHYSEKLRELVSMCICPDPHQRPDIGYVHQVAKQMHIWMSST
Chain of RAC-alpha serine/threonine-protein kinase (Homo sapiens) (P31749 whole entry): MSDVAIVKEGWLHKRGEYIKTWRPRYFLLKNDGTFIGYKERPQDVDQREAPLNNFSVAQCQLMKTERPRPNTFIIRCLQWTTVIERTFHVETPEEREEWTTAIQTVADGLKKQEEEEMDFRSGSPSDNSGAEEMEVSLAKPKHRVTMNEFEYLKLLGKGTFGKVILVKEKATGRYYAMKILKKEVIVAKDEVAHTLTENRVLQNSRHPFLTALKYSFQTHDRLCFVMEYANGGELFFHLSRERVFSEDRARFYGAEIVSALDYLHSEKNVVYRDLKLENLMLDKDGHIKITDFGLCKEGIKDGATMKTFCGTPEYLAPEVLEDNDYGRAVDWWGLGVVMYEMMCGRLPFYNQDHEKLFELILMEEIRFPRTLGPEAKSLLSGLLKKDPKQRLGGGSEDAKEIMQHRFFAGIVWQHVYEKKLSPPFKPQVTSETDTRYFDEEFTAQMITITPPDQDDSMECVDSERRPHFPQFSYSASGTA
Chain of Serine/threonine-protein kinase pim-1 (Homo sapiens) (P11309 whole entry, looked up): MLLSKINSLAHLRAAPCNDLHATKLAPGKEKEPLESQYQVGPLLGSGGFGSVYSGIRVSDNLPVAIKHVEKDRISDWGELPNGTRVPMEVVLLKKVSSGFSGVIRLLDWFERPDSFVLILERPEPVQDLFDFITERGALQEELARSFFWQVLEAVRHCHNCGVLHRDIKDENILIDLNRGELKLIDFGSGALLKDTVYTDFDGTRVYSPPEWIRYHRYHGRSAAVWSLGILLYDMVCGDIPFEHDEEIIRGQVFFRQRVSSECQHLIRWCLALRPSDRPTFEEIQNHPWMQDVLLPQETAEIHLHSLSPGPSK
Chain of Mitogen-activated protein kinase 8 (Homo sapiens) (P45983 whole entry): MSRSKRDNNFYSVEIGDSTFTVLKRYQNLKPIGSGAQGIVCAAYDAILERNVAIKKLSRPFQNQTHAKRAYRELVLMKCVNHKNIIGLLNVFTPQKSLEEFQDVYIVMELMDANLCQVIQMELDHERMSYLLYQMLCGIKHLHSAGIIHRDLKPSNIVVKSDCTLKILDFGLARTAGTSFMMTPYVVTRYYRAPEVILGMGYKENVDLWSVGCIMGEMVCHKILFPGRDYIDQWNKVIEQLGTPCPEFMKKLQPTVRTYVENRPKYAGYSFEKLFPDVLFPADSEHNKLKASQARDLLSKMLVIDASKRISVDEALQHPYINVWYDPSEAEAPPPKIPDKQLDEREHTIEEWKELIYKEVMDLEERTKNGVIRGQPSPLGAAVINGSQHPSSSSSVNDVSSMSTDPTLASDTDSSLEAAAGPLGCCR

Row | Structure (SMILES) | Activity [1] [%] | Activity [2] [%] | Activity [3] [%] | Activity [4] [%] | Activity [5] [%] | Activity [6] [%] | Activity [7] [%] | Activity [8] [%] | Activity [9] [%] | Activity [10] [%] | Activity [11] [%] | Activity [12] [%] | Activity [13] [%] | Activity [14] [%] | Activity [15] [%] | Activity [16] [%] | Activity [17] [%] | Activity [18] [%] | Activity [19] [%]
1 | CC(=O)Nc1cccc(-c2cnc3[nH]nc(C)c3c2)c1 | 115 | 93.9 | 94.5 | 124 | 95 | 89.5 | 101 | 102 | 89.4 | 58.7 | 94.3 | 66.9 | 69.5 | 72.9 | 73.1 | 97 | 93.2 | 61.9 | 42.4
2 | CC(=O)Nc1nccc(-c2c(-c3ccccc3)noc2C)n1 | 69 | 95 | 82.4 | 94 | 81.7 | 112 | 91.2 | 79.3 | 83.7 | 92.3 | 78.8 | 70.3 | 91.9 | 80.4 | 105 | 44.4 | 103 | 21.4 | 94.2
3 | CCCC(=O)Nc1n[nH]c2ncc(-c3cccnc3)cc12 | 99 | 121 | 82 | 79 | 101 | 94 | 86 | 82 | 88 | 111 | 90 | 92 | 88 | 87 | 89 | 70 | 85 | 82 | 31
